In PubChem BioAssay (NCI):
“And” between values parts separate entries of the source, which are not always exact repeats. Identical values can stand only once.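 Method: 48-hour compound exposure of cells in 96-well plates, five concentrations, linear interpolation of endpoints. GI50 marks 50% less growth. TGI is the concentration that stops growth completely.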

Legend:
Assay in all cases: NCI-60 cell line screen, 48 h
ACHN renal = system: ACHN renal
SF-539 CNS = system: SF-539 CNS
HCC-2998 colon = system: HCC-2998 colon
SK-OV-3 ovarian = system: SK-OV-3 ovarian
NCI-H226 lung = system: NCI-H226 lung
TK-10 renal = system: TK-10 renal
M14 melanoma = system: M14 melanoma
CCRF-CEM leukemia = system: CCRF-CEM leukemia
SK-MEL-5 melanoma = system: SK-MEL-5 melanoma
BT-549 breast = system: BT-549 breast

| Structure (SMILES) | GI50 (ACHN renal) | TGI (ACHN renal) | GI50 (SF-539 CNS) | TGI (SF-539 CNS) | GI50 (HCC-2998 colon) | TGI (HCC-2998 colon) | GI50 (SK-OV-3 ovarian) | TGI (SK-OV-3 ovarian) | GI50 (NCI-H226 lung) | GI50 (TK-10 renal) | TGI (TK-10 renal) | GI50 (M14 melanoma) | TGI (M14 melanoma) | GI50 (CCRF-CEM leukemia) | GI50 (SK-MEL-5 melanoma) | TGI (SK-MEL-5 melanoma) | GI50 (BT-549 breast) | TGI (BT-549 breast) | TGI (NCI-H226 lung) | TGI (CCRF-CEM leukemia) |
| --- | --- | --- | --- | --- | --- | --- | --- | --- | --- | --- | --- | --- | --- | --- | --- | --- | --- | --- | --- | --- |
| O=C(Nc1ccc([N+](=O)[O-])cc1Cl)c1cc(Cl)ccc1O | 0.155 µM and 0.258 µM | 19.4 µM | 0.188 µM and 0.261 µM | 4.3 µM and 12 µM | 0.215 µM and 0.452 µM | 2.58 µM and 3.43 µM | 0.15 µM and 0.234 µM | 0.66 µM | 0.155 µM and 0.334 µM | 0.165 µM and 0.307 µM | 1.67 µM and 0.984 µM | 0.16 µM and 0.318 µM | 0.645 µM and 1.75 µM | 0.133 µM and 0.305 µM | 0.0515 µM and 0.116 µM | 0.15 µM and 0.276 µM | 0.105 µM and 0.156 µM | 0.344 µM and 0.647 µM |  |  |
| Nc1ncnc2c1ncn2Cc1ccc(CCl)cc1 | 19.4 µM | 34.8 µM | 16.7 µM | 38.4 µM | 14.2 µM | 29 µM | 19.7 µM | 40.8 µM | 20.6 µM | 18.1 µM | 65.7 µM | 25.2 µM | 60.5 µM | 24.3 µM | 15.2 µM | 28.5 µM | 14.3 µM | 28.7 µM | 35.3 µM | > 100 µM |
| c1ccc2c(c1)CCCc1nnc3nc4ccccc4n3c1-2 | 3.65 µM | > 100 µM | 3.57 µM | 18.4 µM | 6.45 µM | 24.1 µM | 7.78 µM | > 100 µM | 6.39 µM | 6.8 µM | > 100 µM | 3.13 µM | 25.2 µM | 3.68 µM | 4.89 µM | > 100 µM | 11.5 µM | > 100 µM | > 100 µM | > 100 µM |
| C/C=C1/CN2CCC34c5ccccc5N5C(=O)C(C6CC78c9ccccc9N9C(=O)C=CC(C%10CC7N6C/C%10=C/C)C98)=CC(C1CC23)C54 (stereo not drawn) | 11.7 µM | 13.6 µM and 24.3 µM | 12 µM | 3.32 µM and 26.4 µM | 13.4 µM | 12.2 µM and 29.9 µM | 15.3 µM | 19.1 µM and 29.7 µM | 24 µM | 22 µM | 14.4 µM and 40.7 µM | 3.81 µM | 11.9 µM and 13.8 µM | 1.6 µM | 11.9 µM | 12 µM and 25.1 µM |  | 16.4 µM and 21.9 µM | 15 µM and 46 µM | 2.05 µM and 4.39 µM |
| Cn1cc(-c2[nH]c3cc(NC(=O)[C@H](N)C4CCCCC4)cc4c3c2C=NNC4=O)cn1 | 0.419 µM and 1.06 µM | 8.35 µM and > 10 µM | 0.118 µM and 0.109 µM | 0.67 µM and 0.628 µM | 0.472 µM and 0.287 µM | 19.9 µM and > 10 µM | 0.302 µM and 0.309 µM | 11.4 µM and > 10 µM | 0.963 µM and 0.398 µM | 0.675 µM and 0.467 µM | 12.7 µM and > 10 µM | 0.163 µM and 0.234 µM | 0.493 µM and > 4.31 µM | 0.0345 µM and 0.056 µM | 0.696 µM and 0.55 µM | 13.1 µM and > 10 µM | 0.215 µM and 0.375 µM | 1.41 µM and 5.85 µM | 17.8 µM and > 10 µM | 0.507 µM and > 3.89 µM |
| CNC(=O)c1cc(Oc2ccc(NC(=O)Nc3ccc(Cl)c(C(F)(F)F)c3)cc2)ccn1 | 3.22 µM and 3.45 µM and 2.64 µM | > 10 µM and 12 µM and 12.1 µM | 1.97 µM and 2.32 µM and 1.62 µM | > 10 µM and 9.07 µM and 4.82 µM | 3.4 µM and 1.58 µM and 2.81 µM | > 10 µM and 3.11 µM and 8.92 µM | 3.14 µM and 3.28 µM and 2.5 µM | 9.87 µM and 12.5 µM and 7.31 µM | 1.14 µM and 2.29 µM and 2 µM | 4.41 µM and 3.83 µM and 4.48 µM | > 10 µM and 9.96 µM and 20.2 µM | 2.15 µM and 2.11 µM and 2.18 µM | 7.98 µM and 5.03 µM and 5.96 µM | 3.18 µM and 4.35 µM and 2.27 µM | 1.43 µM and 1.61 µM and 1.57 µM | 3.14 µM and 2.97 µM and 3.25 µM | 3.01 µM and 2.29 µM and 3.16 µM | > 10 µM and 5.23 µM and 8.69 µM | 9.38 µM and 7.14 µM and 7.27 µM | > 10 µM and > 100 µM and 16.7 µM |
| COc1ccc(C2CC(=O)Nc3c2c(C)nn3-c2nc3ccccc3[nH]2)cc1OC (stereo not drawn) | 4.45 µM | 34.1 µM | 2.85 µM | 9.48 µM | 10.9 µM | 41.2 µM | 2.89 µM | 6.49 µM | 3.31 µM | 8.95 µM | 93.5 µM | 3.45 µM | 20.4 µM | 1.62 µM | 2.42 µM | 6.17 µM | 4.19 µM | 33.7 µM | 14.1 µM | > 96.3 µM |
| CS(=O)(=O)Nc1cc(-c2ccc3ncnc(Nc4ccc(OCc5ccccn5)c(Cl)c4)c3c2)cnc1Cl | 1.02 µM | > 100 µM | 0.31 µM | 2.38 µM | 1.13 µM | 3.31 µM | 0.21 µM | 1.16 µM | 0.549 µM | 0.23 µM | 1.78 µM | 0.486 µM |  | 0.217 µM | 0.214 µM | 0.68 µM | 0.14 µM | 1.23 µM | 11 µM | > 100 µM |
| O=C1NC(=O)/C(=C/c2ccc3nccc(-c4ccncc4)c3c2)S1 | 0.469 µM | 8.39 µM | 0.294 µM | 1.58 µM | 0.35 µM | 3.89 µM | 0.201 µM | 0.918 µM | 0.239 µM | 0.197 µM | 1.24 µM | 0.365 µM | 2.79 µM | 0.495 µM | 0.419 µM | 1.63 µM | 0.212 µM | 1.39 µM | 2.76 µM | > 10 µM |
| COc1cccc(/C=C/C(=O)c2cc3c(N)c(C(=O)Nc4ccccc4)sc3nc2C)c1 | 0.971 µM | 1.86 µM | 0.957 µM | 1.84 µM | 0.901 µM | 1.66 µM | 4.96 µM | 19.8 µM | 1.15 µM | 1.56 µM | 5.47 µM | 1.27 µM | 3.52 µM |  | 1.48 µM | 5.53 µM | 1.19 µM | 4.06 µM | 2.75 µM |  |
| CCN1C(=O)N(CC)C2C1NN=c1s/c(=C\c3ccc(Br)cc3)c(=O)n12 (stereo not drawn) | 0.249 µM | > 100 µM | 0.0759 µM | 5.87 µM | 0.349 µM | > 100 µM | 1.84 µM | > 100 µM |  | 0.741 µM | > 100 µM | 0.138 µM | > 100 µM | 0.246 µM | 0.118 µM | 1.84 µM | 0.196 µM | 16.4 µM | > 100 µM | > 33.1 µM |
| Nc1cc2c3ccccc3ccc2c2ccccc12 | > 100 µM | > 100 µM | > 51.2 µM | > 100 µM | > 100 µM | > 100 µM | > 100 µM | > 100 µM | > 61.4 µM | > 100 µM | > 100 µM | > 100 µM | > 100 µM | 8 µM | 16.7 µM | > 100 µM | > 77.1 µM | > 100 µM | > 100 µM | > 100 µM |
